Measurements from US20050192240A1, “Methods and compositions relating to expression factors” (priority 2004, published 2005).
Values after ≈ are worked out from the molar mass of the structure shown. Read-outs that look alike come from different tables or passages of the source.

Experiments:
Type in all cases: cell-based
[1] = tested on: C. albicans; test: Agar dilution assay of C. albicans strains; conditions: Candt80/Candt80 mutant versus wild-type or rescued strain; fluconazole 25 μg/ml, voriconazole 1 μg/ml
Description: The cdr1/cdr1 homozygous mutant was constructed according to Sanglard et al., Antimicrob. Agents Chemother. 40:2300-2305, 1996. Fluconazole and voriconazole were prepared to a final concentration of 25 μg/ml and 1 μg/ml, respectively in dimethylsulfoxide (DMSO). C. albicans cells grown on media containing DMSO and in the absence of drug, was used as the control. C. albicans cells were diluted to an OD600 of 2 (corresponding to approximately 2×10^7cells/ml) and 0.5 μl was spotted onto plates containing either fluconazole (25 μg/ml) or voriconazole (1 μg/ml) using a replica device (Oxoid Inc., Canada). Cells were also prepared and spotted in 10-fold serial dilutions (10^4 to 10 cells).

[2] = tested on: S. cerevisiae; test: Etest antifungal strip susceptibility of S. cerevisiae strains; conditions: for MIC: Saccharomyces cerevisiae, SD plate, 30° C., read-out: minimum inhibitory concentration (MIC)
Excerpt: The effect on drug susceptibility by overexpression of CaNdt80p and its S. cerevisiae homolog, Ndt80p, were compared using the antifungal strips, Etest (AB BIODISK, Solna, Sweden) (Arendrup et al., J. Antimicrob. Chemother. 47:521-526, 2001; Chang et al., J. Clin. Microbiol 39:1328-1333, 2001). S. cerevisiae Ndt80p was identified as a meiosis specific transcription factor (Chu et al., Science 282:699-705, 1998; Chu and Herskowitz, Mol. Cell 1:685-696, 1998). Ndt80p is autoregulated and activates its targets through a mid-sporulation element consensus site (MSE: gNCRCAAAA/T) in the target (Chu and Herskowitz, Mol. Cell 1:685-696, 1998). Expression of the NDT80 gene is repressed during vegetative growth (Xu et al., Mol. Cell Biol. 15:6572-6581, 1995; Pak and Segall, Mol. Cell Biol. 22:6417-6429, 2002).
First, homogenized isolated colonies from an overnight SD plate were transferred into a 0.85% NaCl solution to achieve a suspension containing 5×10^6 cells/ml. A sterile swab was dipped into the inoculum suspension and the entire agar surface of an SD plate was streaked evenly with the swab. The plates were allowed to dry until all excess moisture was completely absorbed, and the Etest strips (AB BIODISK, Solna, Sweden) were applied onto each plate. The plates were incubated at 30° C. and were photographed after 3 days of growth. These Etest strips tested the susceptibility to ketoconazole (0.002-32 μg/ml) (KE) and fluconazole (0.016-256 μg/ml) (FL). Susceptibility is indicated by a clear ring around the antifungal strips where growth has been inhibited. Degree of susceptibility is indicated by the size of the ring. The strains tested were the NDT80/NDT80 wild type S. cerevisiae strain transformed with the control vectors 2μ-URA3and CEN-LEU2 (Christianson et al., Gene 110:119-122, 1992; Sikorski and Hieter, Genetics 122:19-27, 1989) (designated as strain SLO16) (“NDT80/NDT80” lane in FIG. 6); a ndt80/ndt80 homozygous mutant transformed with the control 2μ-URA3 vector (designated as strain SLO14) (“ndt80/ndt80 2μ vector” lane in FIG. 6); a ndt80/ndt80 homozygous mutant transformed with the 2μ-URA3-NDT80 plasmid, LOB46 (designated as strain SLO13) (“ndt80/ndt80 2μ NDT80” lane in FIG. 6); and a ndt80/ndt80 homozygous mutant transformed with the 2μ-URA3-CaNDT80 plasmid, LOB44 (designated as strain SLO15) (“ndt80/ndt80 2μ CaNDT80” lane in FIG. 6).
In a separate experiment, a strain harboring the LOB44 plasmid without the NDT80 gene was tested in the Etest.

[3] = tested on: C. albicans; test: Etest antifungal strip susceptibility of C. albicans strains
Description: The three C. albicans strains SC5314 (wild type), YLO133 (homozygous mutant Candt80/Candt80) and YLO137 (rescued strain of YLO133 with one copy of CaNDT80), were also tested for susceptibility to five different drugs using the Etest. Five different antifungal strips (AB BIODISK, Solna, Sweden) were used: amphotericin B at 0.002-32 μg/ml (AP), 5-fluorocytosine at 0.002-32 μg/ml (FC), fluconazole at 0.016-256 μg/ml (FL), itraconazole at 0.002-32 μg/ml (IT) and ketoconazole at 0.002-32 μg/ml (KE). Each strain was grown overnight on an SD plate and homogenized colonies from the plate were transferred into 0.85% NaCl to achieve a suspension of about 5×10^6 cells/ml. A sterile swab was dipped into the inoculum suspension and the entire agar surface of a SD plate was evenly streaked. Each plate was dried until excess moisture was completely absorbed and each of the five different Etest strips were applied onto each plate. The plates were incubated at 30° C. and were photographed after 2 days of growth. Susceptibility to a drug is indicated by a clear inhibition zone around the antifungal strip where growth has been inhibited. Degree of susceptibility is indicated by the size of the ring.

[4] = tested on: C. albicans; test: RT-PCR of CDR1 and CaNDT80 mRNA with or without miconazole; conditions: miconazole 100 μg/ml, one hour, 30° C.; strains SC5314, YLO133, YLO137
Description: C. albicans strains SC5314 (wild type), YLO133 (homozygous mutant Candt80/Candt80) and YLO137 (rescued strain of YLO133 with one copy of CaNDT80), were grown in the presence or absence of the antifungal agent, miconazole (Sigma) at 100 μg/ml for one hour at 30° C. The level of mRNAs of TEF3 (control), CDR1, and CaNDT80, was measured by reverse transcriptase polymerase chain reaction (RT-PCR). […] Lanes 2-4 and 11-13 represent mRNA from YLO133 (homozygous mutant), lanes 5-7 and 14-16 represent mRNA from YLO137 (rescued mutant), and lanes 8-10 and 17-19 represent mRNA from the wild-type strain, SC5314. Lanes 2, 5, 8, 11, 14, and 17 were tested for TEF3 mRNA (internal control); lanes 3, 6, 9, 12, 15, and 18, were tested for CDR1 mRNA; and lanes 4, 7, 10, 13, 16, and 19 were tested for CaNDT80 mRNA. As expected, no CaNDT80 mRNA was detected in the homozygous mutant (FIG. 9, lanes […] and 13). In contrast, CaNDT80 mRNA was detected in the wild-type strain during vegetative growth (FIG. 9, lanes 10 and 19), unlike its homolog NDT80 in S. cerevisiae.

[5] = S. cerevisiae overexpressing CaNDT80 (LOB44 plasmid)
[6] = S. cerevisiae transformed with control vector
[7] = homozygous mutant Candt80/Candt80 (YLO133) compared with wild type SC5314, 2 days

Row | Structure (SMILES) | susceptibility (growth on drug plates) [1] | MIC [2, 5] [mg/L] | MIC [2, 6] [mg/L] | drug susceptibility (inhibition zone) [3, 7] | also measured
1 | OC(Cn1cncn1)(Cn1cncn1)c1ccc(F)cc1F [fluconazole] | more susceptible | 64 (≈ 209 µM) | 24 (≈ 78.4 µM) | increased susceptibility | drug susceptibility (inhibition zone) ([3]; rescued strain YLO137 (one copy of CaNDT80) compared with wild type SC5314, 2 days): more susceptible
2 | Nc1nc(=O)[nH]cc1F [5-fluorocytosine] |  |  |  | increased susceptibility | 
3 | C[C@@H](c1ncncc1F)[C@](O)(Cn1cncn1)c1ccc(F)cc1F [voriconazole] | more susceptible |  |  |  | 
4 | Clc1ccc(COC(Cn2ccnc2)c2ccc(Cl)cc2Cl)c(Cl)c1 (stereo not drawn) [miconazole] |  |  |  |  | patterns of TEF3, CDR1 and CaNDT80 mRNA with versus without treatment [4]: comparable
5 | CC(=O)N1CCN(c2ccc(OCC3COC(Cn4ccnc4)(c4ccc(Cl)cc4Cl)O3)cc2)CC1 (stereo not drawn) [ketoconazole] |  | ≥ 32 | 6 (≈ 11.3 µM) | increased susceptibility | drug susceptibility (inhibition zone) ([2]; ndt80/ndt80 2μ CaNDT80 compared with NDT80/NDT80 S. cerevisiae, 3 days): decreased
